From patent EP1192149B1, “1,4-DITHIIN AND 1,4-DITHIEPIN- 1,1,4,4, TETROXIDE DERIVATIVES USEFUL AS ANTAGONISTS OF THE HUMAN GALANIN RECEPTOR” (Ortho-McNeil Pharmaceutical, Inc., priority 1999, dated 2000) come the findings set out here.

Molecules are shown by their SMILES. Like-named read-outs stand apart in the source and are kept apart here.

One assay addresses T1, Rat Galanin-1 Receptor (Rattus norvegicus, UniProt Q62805).
T1 construct: Rat brain cerebrocortical tissues were chopped into slices; from tissue; host or cells: rat brain cerebrocortical slices
T1 sequence (Q62805 1-346): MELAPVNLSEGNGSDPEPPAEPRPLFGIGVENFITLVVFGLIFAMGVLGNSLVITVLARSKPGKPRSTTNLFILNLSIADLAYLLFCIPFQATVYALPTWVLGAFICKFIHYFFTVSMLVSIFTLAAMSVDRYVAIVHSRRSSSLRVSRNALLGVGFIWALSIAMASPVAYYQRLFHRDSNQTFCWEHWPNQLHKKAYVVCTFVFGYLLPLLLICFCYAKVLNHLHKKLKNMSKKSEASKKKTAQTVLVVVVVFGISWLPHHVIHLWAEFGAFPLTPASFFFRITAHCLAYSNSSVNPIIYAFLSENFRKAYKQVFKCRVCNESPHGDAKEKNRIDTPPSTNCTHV
Kind of assay: Galanin-1 receptor mediated inhibition of acetylcholine release from rat brain cortical slices (superfusion, K+-evoked [3H]acetylcholine efflux). The following applies: for Acetycholine Secretion Stimulated (change vs Control) / Acetycholine Secretion Stimulated: K+-evoked; for Acetycholine Secretion Basal / Acetycholine Secretion Stimulated: mean fractional tritium release. The protocol:
Rat brain cerebrocortical tissues were chopped into slices of 300 x 300 x […] using a Mcllwain tissue chopper. The slices were washed and incubated at 37°C for 30 min in Krebs-Ringer solution: NaCl 118 mM, KCI 4.8 mM, CaCl2 1.3 mM, KH2PO4 1.2 mM, MgSO4 1.2 mM, NaHCO3, 25 mM, glucose […], ascorbic acid […] (previously aerated for 10 min with 95% O2/5% CO2 to obtain a pH of 7.4) and 0.1 µM [Methyl-^3H]choline chloride (85 Ci/mmol, Amersham Life Sciences, Arlington Heights, IL). After incubation, the slices were washed three times with ice-cold physiological solution and resuspended in 6 ml of cold solution. Equal aliquots of the tissue suspension were placed in each of 6 parallel superfusion chambers (Hugo Sachs Elektronik, March-Hugstetten, Germany). A circular piece of nylon mesh (pore size 250 um) was placed just below each chamber outlet in order to prevent the loss of tissue. The chambers were perfused against gravity with oxygenated Krebs-Ringer containing 1 mM physostigmine hemisulfate at a flow rate of 1 ml/min. At the concentration used, physostigmine had no effect on the release of total radioactivity from tissue slices. The onset of superfusion was defined as time zero (t0). Starting at 30 min after t0, 10 min fractions of the effluent were collected.
Release of [^3H]acetylcholine was induced by superfusing tissues for 30 sec with 65mM K^+-Krebs-Ringer solution (made by isomolar replacement of NaCl with KCI). Four potassium pulses were given respectively at 40 min (S1), 70 min (S2), 100 min (S3) and 130 min (S4) after to. No significant deterioration in fractional release was observed during the 4 consecutive stimuli. […] To permit construction of concentration-effect curves, concentrations of agents were increased 10 fold between each stimulus.
Following perfusion, the tissue was homogenized in 1 ml ethanol and aliquots of superfusates (0.4ml) and tissue homogenates (0.04ml) were added to 5 ml of Scintsafe PlusTM 50% (Fisher Scientific, Pittsburgh, PA) and radioactivity counted by liquid scintillation spectrometry. The total ^3H content in this procedure consisted mainly of [^3H]acetylcholine.
Tritium (^3H) efflux into the superfusate was calculated as the fraction of tritium content in the slices or synaptosomes at the onset of the respective collection period. For calculation of the stimulated tritium overflow, the estimated basal efflux (the average of the 10 min fractions immediately before and after each stimulation) was subtracted from the total tritium efflux during the 10 min fraction which began with the 30 sec K^+ pulse. This difference was then used to calculate the percent of K^+-evoked release of acetylcholine.
In order to quantify the in vitro effect of a drug on stimulated tritium outflow, the ratio of the fraction released by a given pulse, Sn, to that evoked by S1, was determined. Data presented below are expressed as the mean fractional tritium release ± S.E.M. Statistical differences between treatments were tested by the two-tailed Student's t test or the two factor ANOVA as appropriate. Individual differences in the dose-response curve was evaluated by the Newman-Keul multiple comparison.

Another assay deals with T2, hGALR-1 (Homo sapiens, UniProt P47211).
T2 construct: hGALR-1 that is contained in membranes from human Bowes melanoma cells; endogenous in cells; host or cells: human Bowes melanoma cells (membranes)
T2 sequence (P47211 1-349): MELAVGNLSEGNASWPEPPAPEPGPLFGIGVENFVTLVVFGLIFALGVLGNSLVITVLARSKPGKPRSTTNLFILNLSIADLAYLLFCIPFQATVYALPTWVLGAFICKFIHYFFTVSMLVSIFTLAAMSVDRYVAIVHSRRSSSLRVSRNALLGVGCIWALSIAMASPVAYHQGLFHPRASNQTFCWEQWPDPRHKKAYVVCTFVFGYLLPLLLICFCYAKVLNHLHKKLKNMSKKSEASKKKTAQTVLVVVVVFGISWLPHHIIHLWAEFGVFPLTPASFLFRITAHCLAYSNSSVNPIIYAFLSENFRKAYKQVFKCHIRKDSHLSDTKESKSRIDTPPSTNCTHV
Kind of assay: Human Galanin-1 Receptor Binding Assay (SPA, 125I human galanin displacement). The following applies: membranes from human Bowes melanoma cells. The protocol: This assay determines the concentration (IC50) of a test compound which prevents 50% of galanin from binding to the hGALR-1 that is contained in membranes from human Bowes melanoma cells bound to wheat germ agglutinin conjugated Scintillation Proximity Assay (SPA) beads. The IC50 value is obtained by measuring the effect of half log increment dilutions of the test compound in duplicate using a 96-well plate (eight-rows, 12-columns).
The SPA beads (500 mg) were dissolved in 12.5 mL of assay buffer composed of 20mM DMSO-HEPES (pH 7.4), 0.1% bovine serum albumin, 2mM MgCl2, 2mM CaCl2, and protease inhibitors. Enough of this suspension for five plates (25 µL x 5 x 96 wells = 12000 µL) was dispensed into a 50 mL sterile Falcon tube. The amount of membranes required for five plates was then added (50µg x 5 x 96 wells), followed by 32.5 mL of 30% DMSO-HEPES buffer. The mixture was placed on a rotator and agitated for 0.5 hours and the non-specific binding sites on the beads were blocked by the addition of 5% [final] fetal bovine serum. Each well of the 96-well plate received 100 µL of this mixture.
To the control column (column 12) rows A and B was added 3.75 µL of a 300 µM solution of galantide in 30% DMSO-HEPES buffer, to rows C and D was added 3.75 µL of 30% DMSO-HEPES buffer and to rows E and F was added 3.75 µL of a 300 µM solution of galanin in 30% DMSO-HEPES buffer. In columns 1 through 11 were added solutions of the test compound in 30% DMSO-HEPES buffer starting at 30 µM and decreasing in concentration in half-log dilutions. A solution of radioactive ^125I human galanin (46.25 µL), prepared from 25 micro Curies of ^125I human galanin (2000 ci/mmol) and 500 µL of assay buffer, was added to each well. The plate was sealed with adhesive paper and incubated for 16 hr at room temperature before the quench-corrected bound radioactivity was measured in a Topcount® apparatus. For each dilution, the % inhibition of galanin binding was calculated as follows: Total binding (T) = Mean counts/minute (cpm) in row C and D in column 12 [formula] Non-specific binding (NSB) = Mean cpm in row E and F in column 12 [formula] Total specific binding (TS) = T-NSB [formula] cpm in each well = C [formula] net cpm in each well (N) = C-NSB [formula] % inhibition = 100%-N × 100%/TS [formula]
The IC50 values for each compound were calculated from the non-linear regression curve of the data using Prism® graphics software.

[1] abbreviates: Table II, formula (II) compounds, read-out: hGAL IC50.
Setting [2] is: Table I, formula (I) compounds, read-out: HGAL IC50.

`O=S1(=O)C=C(c2cccc(F)c2)S(=O)(=O)CCC1` [Cmpd 16]: on Rat Galanin-1 Receptor (1 µM+GAL), the “Acetycholine Secretion Basal (change vs Control)” value was -38.9%, the “Acetycholine Secretion Stimulated (change vs Control)” value is -23.9% and the “Acetycholine Secretion Basal” value is reported as 2.20. Further, on Rat Galanin-1 Receptor (10 µM+GAL), the “Acetycholine Secretion Basal (change vs Control)” value is on record as -37%. As to `O=S1(=O)C=C(c2cccc(Br)c2)S(=O)(=O)CCC1` [Cmpd 9], the IC50 on hGALR-1 (setting [1]) worked out at 890 nM. Same read-out and setting: with `O=S1(=O)C=C(c2cccs2)S(=O)(=O)CCC1` [Cmpd 40] the figure was 1300 nM; with `O=S1(=O)C=C(c2ccc(Oc3ccccc3)cc2)S(=O)(=O)CCC1` [Cmpd 19], 410 nM. Turning to `O=S1(=O)C=C(c2ccccc2)S(=O)(=O)CC1` [Cmpd 1], the half-maximal inhibitory concentration (IC50) on hGALR-1 (setting [2]) was 2700 nM. `O=S1(=O)C=C(c2ccc(F)cc2)S(=O)(=O)CCC1` [Cmpd 14]: on hGALR-1 (setting [1]), the IC50 was determined as 410 nM. With `O=S1(=O)C=C(c2ccccc2Cl)S(=O)(=O)CCC1` [Cmpd 12], at hGALR-1 (setting [1]), the concentration for half-maximal inhibition (IC50) is 640 nM. On to `O=S1(=O)C=C(c2cccc(I)c2)S(=O)(=O)CCC1` [Cmpd 27], for which the IC50 at hGALR-1 (setting [1]) came out at 850 nM. For `CCOc1ccc(C2=CS(=O)(=O)CCCS2(=O)=O)cc1` [Cmpd 28], the IC50 at hGALR-1 (setting [1]) amounted to 590 nM.

Turning to `O=S1(=O)C=C(c2ccc(I)cc2)S(=O)(=O)CCC1` [Cmpd 17], at Rat Galanin-1 Receptor (1 µM+GAL), the “Acetycholine Secretion Basal (change vs Control)” value is on record as -39.2%, the “Acetycholine Secretion Stimulated (change vs Control)” value was -35.2%, the “Acetycholine Secretion Stimulated” value was determined as 5.37 and the “Acetycholine Secretion Basal” value worked out at 2.19. Also, on Rat Galanin-1 Receptor (10 µM+GAL), the “Acetycholine Secretion Basal (change vs Control)” value is given as -37%, the “Acetycholine Secretion Stimulated (change vs Control)” value is -22.3%, the “Acetycholine Secretion Stimulated” value is recorded as 6.44 and the “Acetycholine Secretion Basal” value came to 2.27. In addition, at hGALR-1 (setting [1]), the IC50 came to 710 nM. Consider `O=S1(=O)C=C(c2cccc(C(F)(F)F)c2)S(=O)(=O)CCC1` [Cmpd 11], for which the half-maximal inhibitory concentration (IC50) on hGALR-1 (setting [1]) worked out at 600 nM. Same read-out and setting: as for `O=C(Oc1ccccc1)c1cccc(C2=CS(=O)(=O)CCCS2(=O)=O)c1` [Cmpd 33], the figure is 440 nM; as for `COc1cccc(C2=CS(=O)(=O)CCCS2(=O)=O)c1` [Cmpd 7], 910 nM; as for `O=S1(=O)C=C(c2cccc(Cl)c2)S(=O)(=O)CCC1` [Cmpd 8], 1000 nM. Same read-out and setting: as for `Cc1ccccc1C1=CS(=O)(=O)CCCS1(=O)=O` [Cmpd 18], the figure is 1600 nM. Consider `O=C(NCCc1ccccc1)c1ccc(C2=CS(=O)(=O)CCCS2(=O)=O)cc1` [Cmpd 38], for which, on hGALR-1 (setting [1]), the IC50 turned out to be 1060 nM.

Take `O=S1(=O)C=C(c2ccccc2Br)S(=O)(=O)CCC1` [Cmpd 30]: on hGALR-1 (setting [1]), the half-maximal inhibitory concentration (IC50) is 570 nM.

On to `O=S1(=O)C=C(c2ccsc2)S(=O)(=O)CCC1` [Cmpd 41], for which the IC50 at hGALR-1 (setting [1]) came out at 1300 nM. Turning to `CCCNC(=O)c1ccc(C2=CS(=O)(=O)CCCS2(=O)=O)cc1` [Cmpd 36], on hGALR-1 (setting [1]), the IC50 came to 1040 nM.

Take `O=S1(=O)C=C(c2ccc(OC(F)(F)F)cc2)S(=O)(=O)CCC1` [Cmpd 23]: the IC50 on hGALR-1 (setting [1]) worked out at 490 nM. As for `Cc1cccc(C2=CS(=O)(=O)CCCS2(=O)=O)c1` [Cmpd 6], on hGALR-1 (setting [1]), the IC50 amounted to 1300 nM. Same read-out and setting: with `O=S1(=O)C=C(c2ccc(Br)cc2)S(=O)(=O)CCC1` [Cmpd 13] the figure was 260 nM; with `O=S1(=O)C=C(c2ccccc2C(F)(F)F)S(=O)(=O)CCC1` [Cmpd 31], 580 nM; with `CCOC(=O)c1ccc(C2=CS(=O)(=O)CCCS2(=O)=O)cc1` [Cmpd 34], 1000 nM. Consider `NC(Cc1ccccc1)C1=CS(=O)(=O)CCS1(=O)=O` (centres unmarked) [Cmpd 3], for which, on hGALR-1 (setting [2]), the IC50 stood at 8000 nM. Consider `COc1ccccc1C1=CS(=O)(=O)CCCS1(=O)=O` [Cmpd 32], for which the IC50 at hGALR-1 (setting [1]) stood at 1000 nM. Regarding `CCCCOc1ccc(C(=O)NC(Cc2ccccc2)C2=CS(=O)(=O)CCS2(=O)=O)cc1` (centres unmarked) [Cmpd 4], the IC50 on hGALR-1 (setting [2]) is 1000 nM. Consider `O=S1(=O)C=C(c2cccc3ccccc23)S(=O)(=O)CCC1` [Cmpd 37], for which, on hGALR-1 (setting [1]), the IC50 was 371 nM. Take `O=S1(=O)C=C(c2ccc(C(F)(F)F)cc2)S(=O)(=O)CCC1` [Cmpd 22]: the IC50 at hGALR-1 (setting [1]) was found to be 2100 nM. `O=S1(=O)C=C(c2ccccc2F)S(=O)(=O)CCC1` [Cmpd 29]: the half-maximal inhibitory concentration (IC50) on hGALR-1 (setting [1]) was 430 nM. With `CCc1ccc(C2=CS(=O)(=O)CCCS2(=O)=O)cc1` [Cmpd 26], the IC50 on hGALR-1 (setting [1]) amounted to 430 nM.

With `O=S1(=O)C=C(c2ccc(S(=O)(=O)c3ccccc3)cc2)S(=O)(=O)CCC1` [Cmpd 35], the IC50 at hGALR-1 (setting [1]) is 1580 nM. Still for that read-out and setting: as for `O=S1(=O)C=C(c2ccc(C3CCCCC3)cc2)S(=O)(=O)CCC1` [Cmpd 25], the figure is 1100 nM; as for `O=S1(=O)C=C(c2ccccc2)S(=O)(=O)CCC1` [Cmpd 5], 2700 nM; as for `O=S1(=O)C=C(c2cccc(OC(F)(F)F)c2)S(=O)(=O)CCC1` [Cmpd 20], 2700 nM. On the same count and under the same terms, as for `O=S1(=O)C=C(c2ccc(-c3ccccc3)cc2)S(=O)(=O)CCC1` [Cmpd 24], the figure is 600 nM.
